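Test compounds were applied to cells in 96-well plates for 48 hours at 5 doses. GI50: concentration for 50% inhibition of growth. Definition used: TGI = concentration required for complete inhibition of growth.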
Key:
Assay in all cases: NCI anticancer screen, dose series, 48 h
786-0 renal = tested on: 786-0 renal
MOLT-4 leukemia = tested on: MOLT-4 leukemia
SK-MEL-5 melanoma = tested on: SK-MEL-5 melanoma
M14 melanoma = tested on: M14 melanoma
SF-295 CNS = tested on: SF-295 CNS
HT29 colon = tested on: HT29 colon
EKVX NSCLC = tested on: EKVX NSCLC
CAKI-1 renal = tested on: CAKI-1 renal
RPMI-8226 leukemia = tested on: RPMI-8226 leukemia
OVCAR-5 ovarian = tested on: OVCAR-5 ovarian

Compound | GI50 (786-0 renal) | TGI (786-0 renal) | GI50 (MOLT-4 leukemia) | TGI (MOLT-4 leukemia) | GI50 (SK-MEL-5 melanoma) | TGI (SK-MEL-5 melanoma) | GI50 (M14 melanoma) | TGI (M14 melanoma) | GI50 (SF-295 CNS) | TGI (SF-295 CNS) | GI50 (HT29 colon) | TGI (HT29 colon) | GI50 (EKVX NSCLC) | TGI (EKVX NSCLC) | GI50 (CAKI-1 renal) | TGI (CAKI-1 renal) | GI50 (RPMI-8226 leukemia) | TGI (RPMI-8226 leukemia) | GI50 (OVCAR-5 ovarian) | TGI (OVCAR-5 ovarian)
CC(=O)OC[C@H]1O[C@@H](n2ccc(=O)[nH]c2=O)[C@H](OC(C)=O)[C@@H]1OC(C)=O | > 100 µM | > 100 µM | > 100 µM | > 100 µM | > 100 µM | > 100 µM | > 100 µM | > 100 µM | > 100 µM | > 100 µM | > 100 µM | > 100 µM | > 100 µM | > 100 µM | > 100 µM | > 100 µM | > 100 µM | > 100 µM | > 100 µM | > 100 µM
OCCCCC#Cc1ccccc1C#Cc1ccccc1 | 8.6 µM | 22.5 µM | 17.8 µM | 63.8 µM | 14.4 µM | 28.6 µM | 10.1 µM | 22.9 µM | 7.65 µM | 22.6 µM | 13.2 µM | > 100 µM | 6.59 µM | 22.4 µM | 14.7 µM | 29.1 µM | 15.9 µM | 37.7 µM | 17.7 µM | 43.6 µM
CC[C@]1(O)CC2CN(CCc3c([nH]c4ccccc34)[C@@](C(=O)OC)(c3cc4c(cc3OC)N(C)[C@H]3[C@@](O)(C(=O)OC)[C@H](OC(C)=O)[C@]5(CC)C=CCN6CC[C@]43[C@@H]65)C2)C1 (stereo not given in full) | < 0.005 µM | 3.13 µM | < 0.005 µM | 0.721 µM | < 0.005 µM | 0.0607 µM | < 0.005 µM | 0.0417 µM | < 0.005 µM | 6.03 µM | < 0.005 µM | 5.18 µM | 0.00956 µM | > 50 µM | 0.0804 µM | 21.6 µM | < 0.005 µM | 8.48 µM | 0.01 µM | > 47.2 µM
O=C(O)CNc1c2ccccc2nc2ccccc12 |  | > 100 µM |  | > 100 µM |  | > 100 µM |  | > 100 µM |  | > 100 µM |  | > 100 µM |  | > 100 µM |  | > 100 µM |  | > 100 µM |  | > 100 µM
CC1=C(/C=C/C(C)=C\C=C\C(C)=C\C(=O)Nc2ccc3c(c2)OCO3)C(C)(C)CCC1 | 40.2 µM | > 100 µM | 16.1 µM | > 100 µM | 16.2 µM | 68.1 µM | > 100 µM | > 100 µM | 31 µM | > 100 µM | 11.9 µM | > 100 µM | 62.3 µM | > 100 µM | > 100 µM | > 100 µM | 2.93 µM | > 100 µM | > 100 µM | > 100 µM
C/C(=N/S(=O)(=O)c1ccc(Cl)c(Cl)c1)OCC(C)(C)C |  | > 100 µM |  | > 100 µM |  | > 100 µM |  | > 100 µM |  | > 100 µM |  | > 100 µM |  | > 100 µM |  | > 100 µM |  | > 100 µM |  | > 100 µM
COc1ccc(/C=C/C(=O)c2cc3c(N)c(C(=O)Nc4ccccc4Cl)sc3nc2C)cc1 | 0.839 µM | 2.18 µM | 4.59 µM | > 50 µM | 1.36 µM | 8.79 µM | 0.481 µM | > 50 µM | 3 µM | > 50 µM | 1.98 µM | > 50 µM | 2.25 µM | > 50 µM | 7.51 µM | > 50 µM | 5.72 µM | > 50 µM | > 50 µM | > 50 µM
CC(CN(CP(=O)([O-])[O-])CP(=O)([O-])[O-])N(CP(=O)([O-])[O-])CP(=O)([O-])[O-].N.N.[Pt+2] (stereo not given) | > 100 µM | > 100 µM | > 100 µM | > 100 µM | > 100 µM | > 100 µM | > 100 µM | > 100 µM | > 100 µM | > 100 µM | > 100 µM | > 100 µM | > 100 µM | > 100 µM | > 100 µM | > 100 µM | > 100 µM | > 100 µM | > 100 µM | > 100 µM
CN(C)CCCn1c2c(c3cnccc3c1=O)C(=O)c1ccccc1-2 | 0.361 µM | 13.6 µM | 0.232 µM | 2.1 µM | 0.363 µM | 1.48 µM | 0.391 µM | 2.41 µM | 0.737 µM | 5.59 µM | 0.242 µM | 11.3 µM | 2.33 µM | 16 µM | 0.376 µM | 7.01 µM | 0.337 µM | 1.65 µM | 0.558 µM | 9.04 µM
